Entries after “also recorded” stand apart in the source; their conditions may differ.
What was measured:
AKT1 = molecular target: T1, AKT1 (Homo sapiens, UniProt P31749); assay: Z'-LYTE assay (AKT binding assay), AKT1; settings: 10-point dose response, Km ATP, read-out: Biochemical Binding AKT1
T1 construct: purchased Life Technologies (Invitrogen)
Description: (§1) Z′-LYTE assays (catalog number PV3193, Invitrogen™) were conducted for AKT1, AKT2, AKT3, PKG1, S6K1, PKN1, βMSK2, and Haspin at Life Technologies™ in a 10-point dose response using Km ATP concentrations. LanthaScreen™ assays were conducted for RET (V804M) in a 10-point dose response at Life Technologies™.

AKT2 = molecular target: T2, AKT2 (Homo sapiens, UniProt P31751); assay: Z'-LYTE assay (AKT binding assay), AKT2; settings: 10-point dose response, Km ATP, read-out: Biochemical Binding AKT2
T2 construct: purchased Life Technologies (Invitrogen)
Description: as §1

AKT1, AKT2 and AKT3 [1] = assay: Immunoblot of AKT isoform degradation in MCF10A cells; format: cell-based, human; settings: 24-hour treatment
Description: (§2) MDA-MB-468 (human breast cancer cell line) cells were maintained in RPMI 1640 (Wisent Bioproducts) supplemented with 10% FBS (Thermo Fisher Scientific) and MCF10A (human breast epithelial cell line) cells were maintained in Dulbecco's modified Eagle's medium (DMEM)/Ham's F12 (Wisent Bioproducts) supplemented with 5% equine serum (Fisher), insulin (10 μg/ml) (Life Technologies), hydrocortisone (500 ng/ml) (Sigma-Aldrich®), epidermal growth factor (20 ng/ml) (R&D Systems), and cholera toxin (100 ng/ml) (List Biological Lab). MDA-MB-468 and MCF10A cells were seeded at 250,000 cells/mL and 200,000 cells/mL, respectively. The following day cells were treated with inventive bifunctional compounds. After 24 hours, cells were washed with phosphate-buffered saline at 4° C. and lysed in radioimmunoprecipitation assay (RIPA) buffer (150 mM Tris-HCl, 150 mM NaCl, 0.5% (w/v) sodium deoxycholate, 1% (v/v) NP-40, pH 7.5) containing 0.1% (w/v) sodium dodecyl sulfate, 1 mM sodium pyrophosphate, 20 mM sodium fluoride, 50 nM calyculin, and 0.5% (v/v) protease inhibitor cocktail (Sigma-Aldrich®)). Cell extracts were precleared by centrifugation at 14,000 rpm for 10 minutes at 4° C. The Bio-Rad DC protein assay was used to assess protein concentration, and sample concentration was normalized using SDS sample buffer. […] Images were stored and analyzed using ImageStudio™ (LI-COR®) software. […]

AKT3 = molecular target: T3, AKT3 (Homo sapiens, UniProt Q9Y243); assay: Z'-LYTE assay (AKT binding assay), AKT3; settings: 10-point dose response, Km ATP, read-out: Biochemical Binding AKT3
T3 construct: purchased Life Technologies (Invitrogen)
Description: as §1

AKT1, AKT2 and AKT3 [2] = assay: Immunoblot of AKT isoform degradation in MDA-MB-468 cells; format: cell-based, human; settings: 24-hour treatment
Description: as §2

T2 sequence (P31751 whole entry): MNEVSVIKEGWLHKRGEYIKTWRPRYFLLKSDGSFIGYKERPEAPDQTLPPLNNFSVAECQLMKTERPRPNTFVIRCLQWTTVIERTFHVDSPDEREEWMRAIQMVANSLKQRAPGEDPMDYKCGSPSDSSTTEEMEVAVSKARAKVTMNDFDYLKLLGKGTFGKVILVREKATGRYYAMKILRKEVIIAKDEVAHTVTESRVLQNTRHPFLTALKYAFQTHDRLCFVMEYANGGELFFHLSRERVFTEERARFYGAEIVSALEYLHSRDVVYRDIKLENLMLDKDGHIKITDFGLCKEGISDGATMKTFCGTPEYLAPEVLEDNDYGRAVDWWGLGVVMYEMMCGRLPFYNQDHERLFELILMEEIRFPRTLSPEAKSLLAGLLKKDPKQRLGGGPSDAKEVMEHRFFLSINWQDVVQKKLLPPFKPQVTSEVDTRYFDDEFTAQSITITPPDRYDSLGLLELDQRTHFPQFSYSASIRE
T1 sequence (P31749 whole entry): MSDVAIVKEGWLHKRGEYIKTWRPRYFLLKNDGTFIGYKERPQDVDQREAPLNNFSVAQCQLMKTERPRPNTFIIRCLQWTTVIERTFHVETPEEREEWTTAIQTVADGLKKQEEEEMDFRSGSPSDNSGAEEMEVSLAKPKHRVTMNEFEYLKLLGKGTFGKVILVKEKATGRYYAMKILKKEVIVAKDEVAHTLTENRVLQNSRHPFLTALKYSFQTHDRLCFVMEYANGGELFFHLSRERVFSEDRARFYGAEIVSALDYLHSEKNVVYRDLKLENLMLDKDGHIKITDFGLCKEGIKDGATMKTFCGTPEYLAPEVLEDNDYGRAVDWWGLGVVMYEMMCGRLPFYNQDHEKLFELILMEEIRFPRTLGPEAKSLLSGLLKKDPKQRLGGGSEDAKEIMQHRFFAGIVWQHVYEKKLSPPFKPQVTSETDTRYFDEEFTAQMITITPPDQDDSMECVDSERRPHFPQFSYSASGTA
T3 sequence (Q9Y243 whole entry): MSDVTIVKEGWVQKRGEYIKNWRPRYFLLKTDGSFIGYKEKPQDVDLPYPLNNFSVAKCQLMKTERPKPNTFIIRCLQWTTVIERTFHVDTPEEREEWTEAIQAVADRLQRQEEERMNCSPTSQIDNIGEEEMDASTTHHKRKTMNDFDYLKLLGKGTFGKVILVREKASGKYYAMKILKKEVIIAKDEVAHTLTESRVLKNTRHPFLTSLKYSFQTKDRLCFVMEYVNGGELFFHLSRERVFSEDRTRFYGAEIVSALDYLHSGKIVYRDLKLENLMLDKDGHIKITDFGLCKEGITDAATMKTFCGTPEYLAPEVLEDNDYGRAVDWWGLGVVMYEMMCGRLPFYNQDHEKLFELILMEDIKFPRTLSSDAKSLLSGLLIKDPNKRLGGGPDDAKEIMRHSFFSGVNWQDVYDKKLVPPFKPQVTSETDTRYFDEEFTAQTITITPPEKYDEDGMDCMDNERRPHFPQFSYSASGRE

Row | Compound | IC50 (AKT1) | IC50 (AKT2) | Degradation of AKT isoforms (AKT1, AKT2 and AKT3 [1]) | IC50 (AKT3) | Degradation of AKT isoforms (AKT1, AKT2 and AKT3 [2])
1 | Cc1ncsc1-c1ccc([C@H](C)NC(=O)[C@@H]2C[C@@H](O)CN2C(=O)[C@@H](NC(=O)CCOCCCNC[C@@H](C(=O)N2CCN(c3ncnc4c3[C@H](C)CC4)CC2)c2ccc(Cl)cc2)C(C)(C)C)cc1 [Compound 1, (2S,4R)-1-((S)-2-(3-(3-(((S)-2-(4-chlorophenyl)-3-(4-((R)-5-methyl-6,7-dihydro-5H-cyclopenta[d]pyrimidin-4-yl)piperazin-1-yl)-3-oxopropyl)amino)propoxy)propanamido)-3,3-dimethylbutanoyl)-4-hydroxy-N—((S)-1-(4-(4-methylthiazol-5-yl)phenyl)ethyl)pyrrolidine-2-carboxamide] | 1.58 nM | 15.1 nM | degraded in MCF10A cells in a dose-dependent manner | 4.94 nM | degraded in MDA-MB-468 cells in a dose-dependent manner; also recorded: degraded in MDA-MB-468 cells (FIG. 3)
2 | C[C@@H]1C[C@@H](O)c2ncnc(N3CCN(C(=O)[C@H](CNCCCNC(=O)COc4cccc5c4C(=O)N(C4CCC(=O)NC4=O)C5=O)c4ccc(Cl)cc4)CC3)c21 (stereo partly drawn) [Compound 2, N-(3-(((S)-2-(4-chlorophenyl)-3-(4-((5R,7R)-7-hydroxy-5-methyl-6,7-dihydro-5H-cyclopenta[d]pyrimidin-4-yl)piperazin-1-yl)-3-oxopropyl)-amino)propyl)-2-((2-(2,6-dioxopiperidin-3-yl)-1,3-dioxoisoindolin-4-yl)oxy) acetamide] | 3.93 nM | 31.4 nM |  | 20.4 nM | 
3 | C[C@@H]1C[C@@H](O)c2ncnc(N3CCN(C(=O)[C@H](CNCCCCCCCCNC(=O)COc4cccc5c4C(=O)N(C4CCC(=O)NC4=O)C5=O)c4ccc(Cl)cc4)CC3)c21 (stereo partly drawn) [Compound 3, N-(8-(((S)-2-(4-chlorophenyl)-3-(4-((5R,7R)-7-hydroxy-5-methyl-6,7-dihydro-5H-cyclopenta[d]pyrimidin-4-yl)piperazin-1-yl)-3-oxopropyl)amino)octyl)-2-((2-(2,6-dioxopiperidin-3-yl)-1,3-dioxoisoindolin-4-yl)oxy)acetamide] | 1.03 nM | 4.04 nM | degraded in MCF10A cells in a dose-dependent manner | 1.23 nM | degraded in MDA-MB-468 cells in a dose-dependent manner; also recorded: degraded in MDA-MB-468 cells (FIG. 3)

Reference: patent publication US12642857B2, “Degradation of AKT by conjugation of ATP-competitive AKT inhibitor GDC-0068 with E3 ligase ligands and methods of use” (DANA-FARBER CANCER INSTITUTE, INC., priority 2019, dated 2026)
